In patent US20240101576A1, “HETEROCYCLIC INHIBITORS OF EGFR AND/OR HER2, FOR USE IN THE TREATMENT OF CANCER” (Scorpion Therapeutics, Inc., priority 2020, published 2024):

Legend:
Format in all cases: cell-based
EGFR WT (Ba/F3 cells) = biological target: T1, EGFR WT (Ba/F3 cells) (Homo sapiens, UniProt P00533); test: Inhibitor activity on EGFR-dependent cell growth (CellTiter-Glo, 72 h), Ba/F3 EGFR WT; details: read-out: BaF3 WT IC50
T1 construct: expressed in transfected cells; host or cells: Ba/F3 (murine pro-B cells), retroviral transduction, puromycin selection, maintained with EGF
Method in brief: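 This growth assay used Ba/F3 cells that depend on wild-type EGFR and are kept in EGF without IL3. Compounds were made up as 10 mM DMSO stocks and diluted 3-fold over 10 points. 120 nL went onto 600 cells/well. After 72 hours, 40 μL CellTiter-Glo was added and luminescence read on EnVision after 30 min.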

[1] = biological target: T2, EGFR exon 20 NPG Ins D770_N771 (Ba/F3 cells) (Homo sapiens, UniProt P00533, INS770NPG); test: Inhibitor activity on EGFR-dependent cell growth (CellTiter-Glo, 72 h), Ba/F3 EGFR exon 20 NPG Ins; details: read-out: BaF3 NPG IC50
T2 construct: expressed in transfected cells; host or cells: Ba/F3 (murine pro-B cells), retroviral transduction, puromycin selection, IL3-independent pool
Method in brief: (§1)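 IC50s derive from a sigmoidal dose–response fit of CellTiter-Glo signal. The signal was normalised between […]-treated cells and cell-free medium. Ba/F3 mutant-EGFR cells, seeded at 400–800/well depending on the line, had 72 h of exposure to a 10-point, 3-fold compound series.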

EGFR (CUTO14 cells) = EGFR (CUTO14 cells) (Homo sapiens, UniProt P00533); test: Inhibitor activity on EGFR phosphorylation (pEGFR AlphaLISA, 2 h), CUTO14 cells
Source text: (§2) Example B. Inhibitor Activity on EGFR phosphorylation (pEGFR)
(§3) EGFR mutant Ba/F3 cells were generated by transduction with retrovirus containing vectors expressing EGFR L858R, EGFR exon 19del, EGFR L858R/C797S, EGFR exon 20 NPG Ins D770_N771, EGFR exon 20 ASV Ins V769_D770, or EGFR exon 20 SVD Ins D770_N771 genes along with a puromycin selection marker. Transduced cells are selected with puromycin for 7 days and are then be transferred into culture media without Interleukin 3 (IL3). Surviving cells are confirmed to express EGFR by Western blot and maintained as a pool. CUTO14 cells were obtained from Dr. Robert C. Doebele at the University of Colorado. The IC50 date are included in Table 6 and Table 7.
(§4) 1.1 Cells are harvested from flask into cell culture medium and the cell number counted.
(§5) 1.2 Cells are diluted with culture medium to the desired density and 40 μL of cell suspension is added into each well of 384-well cell culture plate and the seeding density is 50K cells/well (Ba/F3) or 12.5K cells/well (CUTO14).
(§6) 2 Compound Preparation and Treatment
(§7) 2.1 Test compounds are dissolved to 10 mM in a DMSO stock solution. 45 μL of stock solution is transferred to a 384 polypropylene plate (pp-plate). Perform 3-fold, 10-point dilution via transferring 15 μL compound into 30 μL DMSO using a TECAN (EVO200) liquid handler.
(§8) 2.2 Spin plates at room temperature at 1,000 RPM for 1 minute.
(§9) 2.3 Transfer 5 nL of diluted compound from compound source plate into the cell plate.
(§10) 2.4 After compound treatment for 2 hours, perform pEGFR detection by AlphaLISA for compound treatment plates as described in “Detection” section.
(§11) 3 Detection by pEGFR AlphaLISA (Perkin-Elmer)
(§12) 3.1 Plates are removed from incubators and equilibrated at room temperature for 10 minutes, and media was removed
(§13) 3.2 10 μL of lysis buffer is added and plates shaken at 600 rpm for 1 hr.
(§14) 3.3 Prepare acceptor mix just before use and dispense 5 μL of acceptor mix to all the wells. Shake 350 rpm for Ihr in the dark
(§15) 3.4 Prepare donor mix under low light conditions prior to use. Dispense 5 μL of donor mix to all the wells. Mix well on the shaker, seal and wrap in aluminum foil and incubate 1.5 hrs at room temperature in the dark
(§16) 3.5 Transfer 18.5 μL mixture to OptiPlate 384, and read using an Envision. The IC50 date were included in Table 6 and Table 7.

EGFR L858R (Ba/F3 cells) = biological target: T3, EGFR L858R (Ba/F3 cells) (Homo sapiens, UniProt P00533, L858R); test: Inhibitor activity on EGFR-dependent cell growth (CellTiter-Glo, 72 h), Ba/F3 EGFR L858R; details: read-out: BaF3 L858R IC50
T3 construct: expressed in transfected cells; host or cells: Ba/F3 (murine pro-B cells), retroviral transduction, puromycin selection, IL3-independent pool
Method in brief: (§17)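 Mutant EGFR drives IL3-independent growth of engineered Ba/F3 pools. L858R cells go in at 400/well, L858R/C797S at 600, and exon 19del or FQEA insertion at 800. After 72 h with compound, plates are equilibrated 15 min at RT. Reagent is added 1:1, followed by 30 min and a luminescence read.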

[2] = biological target: T4, EGFR exon 20 SVD Ins D770_N771 (Ba/F3 cells) (Homo sapiens, UniProt P00533, INS770SVD); test: Inhibitor activity on EGFR-dependent cell growth (CellTiter-Glo, 72 h), Ba/F3 EGFR exon 20 SVD Ins; details: read-out: BaF3 SVD IC50
T4 construct: expressed in transfected cells; host or cells: Ba/F3 (murine pro-B cells), retroviral transduction, puromycin selection, IL3-independent pool
Method in brief: as §1

[3] = biological target: T5, EGFR exon 20 ASV Ins V769_D770 (Ba/F3 cells) (Homo sapiens, UniProt P00533, INS769ASV); test: Inhibitor activity on EGFR-dependent cell growth (CellTiter-Glo, 72 h), Ba/F3 EGFR exon 20 ASV Ins; details: read-out: BaF3 ASV IC50
T5 construct: expressed in transfected cells; host or cells: Ba/F3 (murine pro-B cells), retroviral transduction, puromycin selection, IL3-independent pool
Method in brief: as §1

[4] = biological target: T6, EGFR exon 20 FQEA Ins A763_V764 (Ba/F3 cells) (Homo sapiens, UniProt P00533, INS763FQEA); test: Inhibitor activity on EGFR-dependent cell growth (CellTiter-Glo, 72 h), Ba/F3 EGFR exon 20 FQEA Ins; details: read-out: BaF3 FQEA IC50
T6 construct: expressed in transfected cells; host or cells: Ba/F3 (murine pro-B cells), retroviral transduction, puromycin selection, IL3-independent pool
Method in brief: as §17

[5] = biological target: EGFR exon 19del (Ba/F3 cells) (Homo sapiens, UniProt P00533); test: Inhibitor activity on EGFR-dependent cell growth (CellTiter-Glo, 72 h), Ba/F3 EGFR exon 19del; details: Ba/F3 EGFR exon 19del cell growth, read-out: BaF3 Del19 IC50
Method in brief: as §17

[6] = biological target: T7, EGFR L858R/C797S (Ba/F3 cells) (Homo sapiens, UniProt P00533, C797S/L858R); test: Inhibitor activity on EGFR-dependent cell growth (CellTiter-Glo, 72 h), Ba/F3 EGFR L858R/C797S; details: read-out: BaF3 L858R/C797S IC50
T7 construct: expressed in transfected cells; host or cells: Ba/F3 (murine pro-B cells), retroviral transduction, puromycin selection, IL3-independent pool
Source text: Example A. Inhibitor Activity on EGFR-Dependent Cell Growth
Cell lines are generated by transducing Ba/F3 cells with retroviruses containing vectors with EGFR WT, EGFR L858R, EGFR exon 19del, EGFR L858R/C797S, EGFR exon 20 NPG Ins D770_N771, EGFR exon 20 ASV Ins V769_D770, EGFR exon 20 SVD Ins D770_N771, or EGFR exon 20 FQEA Ins A763_V764 genes and a puromycin selection marker. Transduced cells are selected with puromycin for 7 days and are then be transferred into culture media without Interleukin 3 (IL3). EGFR WT cells are maintained with supplemental EGF. Surviving cells are confirmed to express EGFR by Western blot and maintained as a pool. The IC50 date were included in Table 6 and Table 7.
as §4
1.2 Cells are diluted with culture medium to the desired density and 40 μL of cell suspension is added into each well of 384-well cell culture plate and the seeding density is 800 (FQEA, exon 19del), 600 (WT, NPG, L858R/C797S), or 400 (ASV, SVD, L858R) cells/well.
as §6, §7, §8
2.3 Transfer 120 nL of diluted compound from compound source plate into the cell plate.
2.4 After compound treatment for 72 hours, perform CTG detection for compound treatment plates as described in “Detection” section.
3.1 Plates are removed from incubators and equilibrated at room temperature for 15 minutes.
3.2 Thaw the CellTiter Glo reagents and allow to equilibrate to room temperature before the experiment.
3.3 Add 40 μL of CellTiter-Glo reagent into each well (at 1:1 to culture medium). Then place the plates at room temperature for 30 min followed by reading on EnVision.
4.1 Inhibition activity is calculated following the formula below:
% Inhibition=100×(LumHC−LumSample)/(LumHC−LumLC) • where HC is obtained from cells treated with 0.1% DMSO only; and LC is obtained from culture medium only.
4.2 2. Calculate the IC50 by fitting the Curve using Xlfit (v5.3.1.3), equation 201.
Y=Bottom+(Top−Bottom)/(1+10^((Log IC50−X)*HillSlope))

[7] = biological target: T7, EGFR L858R/C797S (Ba/F3 cells); test: Inhibitor activity on EGFR phosphorylation (pEGFR AlphaLISA, 2 h), Ba/F3 EGFR L858R/C797S
Source text: as §2, §3, §4, §5, §6, §7, §8, §9, §10, §11, §12, §13, §14, §15, §16

T5 sequence (P00533 with tags, fused parts or gaps INS769ASV): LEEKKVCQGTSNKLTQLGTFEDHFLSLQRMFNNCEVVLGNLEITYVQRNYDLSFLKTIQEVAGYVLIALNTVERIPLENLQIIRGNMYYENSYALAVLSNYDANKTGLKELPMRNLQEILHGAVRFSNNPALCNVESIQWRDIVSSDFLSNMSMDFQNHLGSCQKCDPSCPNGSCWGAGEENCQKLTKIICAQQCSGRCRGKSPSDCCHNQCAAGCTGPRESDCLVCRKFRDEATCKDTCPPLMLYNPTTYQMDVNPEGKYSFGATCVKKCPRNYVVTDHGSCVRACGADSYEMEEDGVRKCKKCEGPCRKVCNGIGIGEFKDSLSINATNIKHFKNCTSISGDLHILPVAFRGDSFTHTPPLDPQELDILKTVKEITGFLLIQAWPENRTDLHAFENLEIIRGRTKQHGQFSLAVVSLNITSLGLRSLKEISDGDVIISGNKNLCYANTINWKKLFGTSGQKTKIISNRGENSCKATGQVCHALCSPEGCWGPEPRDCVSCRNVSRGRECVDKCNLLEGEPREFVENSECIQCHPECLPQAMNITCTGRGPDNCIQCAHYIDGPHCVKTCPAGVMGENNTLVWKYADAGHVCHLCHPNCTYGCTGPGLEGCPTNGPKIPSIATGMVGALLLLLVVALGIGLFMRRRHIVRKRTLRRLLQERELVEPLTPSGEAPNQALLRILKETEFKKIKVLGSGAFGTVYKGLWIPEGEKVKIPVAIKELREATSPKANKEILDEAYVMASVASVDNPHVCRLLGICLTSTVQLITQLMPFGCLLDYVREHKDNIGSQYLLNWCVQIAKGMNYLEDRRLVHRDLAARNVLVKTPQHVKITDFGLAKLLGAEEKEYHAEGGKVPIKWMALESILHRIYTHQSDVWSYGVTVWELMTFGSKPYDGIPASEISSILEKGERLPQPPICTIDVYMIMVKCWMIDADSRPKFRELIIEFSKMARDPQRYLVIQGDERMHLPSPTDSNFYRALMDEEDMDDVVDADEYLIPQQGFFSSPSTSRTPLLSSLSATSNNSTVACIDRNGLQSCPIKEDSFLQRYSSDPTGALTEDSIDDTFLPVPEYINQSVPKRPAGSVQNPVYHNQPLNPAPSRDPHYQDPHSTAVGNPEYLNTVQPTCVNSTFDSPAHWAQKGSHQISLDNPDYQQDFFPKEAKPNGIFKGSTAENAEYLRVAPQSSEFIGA
T2 sequence (P00533 with tags, fused parts or gaps INS770NPG): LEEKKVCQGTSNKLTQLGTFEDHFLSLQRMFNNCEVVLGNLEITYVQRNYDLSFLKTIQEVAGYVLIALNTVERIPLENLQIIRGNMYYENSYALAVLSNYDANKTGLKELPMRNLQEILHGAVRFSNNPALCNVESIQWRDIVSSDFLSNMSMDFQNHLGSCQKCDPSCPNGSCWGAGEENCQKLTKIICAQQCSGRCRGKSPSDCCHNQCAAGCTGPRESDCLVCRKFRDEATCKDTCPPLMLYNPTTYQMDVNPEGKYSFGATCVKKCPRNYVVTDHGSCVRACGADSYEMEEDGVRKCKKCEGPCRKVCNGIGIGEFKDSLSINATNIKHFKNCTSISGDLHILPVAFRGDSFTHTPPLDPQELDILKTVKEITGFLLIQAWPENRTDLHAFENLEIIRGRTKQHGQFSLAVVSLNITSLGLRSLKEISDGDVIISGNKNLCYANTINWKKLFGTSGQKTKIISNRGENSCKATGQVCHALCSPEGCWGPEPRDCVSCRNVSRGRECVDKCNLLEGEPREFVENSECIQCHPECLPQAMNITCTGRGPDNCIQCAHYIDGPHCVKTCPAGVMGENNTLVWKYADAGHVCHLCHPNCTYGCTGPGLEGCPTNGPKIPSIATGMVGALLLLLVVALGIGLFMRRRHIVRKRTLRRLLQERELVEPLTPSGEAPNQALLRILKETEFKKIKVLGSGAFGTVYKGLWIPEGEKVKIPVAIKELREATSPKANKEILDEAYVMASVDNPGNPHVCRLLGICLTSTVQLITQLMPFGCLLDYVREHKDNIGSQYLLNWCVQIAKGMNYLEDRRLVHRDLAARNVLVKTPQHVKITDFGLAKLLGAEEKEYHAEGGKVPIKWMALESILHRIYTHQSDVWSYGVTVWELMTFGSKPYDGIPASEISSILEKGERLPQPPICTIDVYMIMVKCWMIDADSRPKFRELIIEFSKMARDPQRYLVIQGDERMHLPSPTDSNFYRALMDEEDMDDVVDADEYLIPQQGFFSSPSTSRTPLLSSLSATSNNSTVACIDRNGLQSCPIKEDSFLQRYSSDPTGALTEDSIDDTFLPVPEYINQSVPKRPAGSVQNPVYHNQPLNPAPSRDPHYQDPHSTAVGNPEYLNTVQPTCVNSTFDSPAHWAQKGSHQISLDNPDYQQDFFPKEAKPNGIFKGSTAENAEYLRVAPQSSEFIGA
T3 sequence (P00533 25-1210 L858R): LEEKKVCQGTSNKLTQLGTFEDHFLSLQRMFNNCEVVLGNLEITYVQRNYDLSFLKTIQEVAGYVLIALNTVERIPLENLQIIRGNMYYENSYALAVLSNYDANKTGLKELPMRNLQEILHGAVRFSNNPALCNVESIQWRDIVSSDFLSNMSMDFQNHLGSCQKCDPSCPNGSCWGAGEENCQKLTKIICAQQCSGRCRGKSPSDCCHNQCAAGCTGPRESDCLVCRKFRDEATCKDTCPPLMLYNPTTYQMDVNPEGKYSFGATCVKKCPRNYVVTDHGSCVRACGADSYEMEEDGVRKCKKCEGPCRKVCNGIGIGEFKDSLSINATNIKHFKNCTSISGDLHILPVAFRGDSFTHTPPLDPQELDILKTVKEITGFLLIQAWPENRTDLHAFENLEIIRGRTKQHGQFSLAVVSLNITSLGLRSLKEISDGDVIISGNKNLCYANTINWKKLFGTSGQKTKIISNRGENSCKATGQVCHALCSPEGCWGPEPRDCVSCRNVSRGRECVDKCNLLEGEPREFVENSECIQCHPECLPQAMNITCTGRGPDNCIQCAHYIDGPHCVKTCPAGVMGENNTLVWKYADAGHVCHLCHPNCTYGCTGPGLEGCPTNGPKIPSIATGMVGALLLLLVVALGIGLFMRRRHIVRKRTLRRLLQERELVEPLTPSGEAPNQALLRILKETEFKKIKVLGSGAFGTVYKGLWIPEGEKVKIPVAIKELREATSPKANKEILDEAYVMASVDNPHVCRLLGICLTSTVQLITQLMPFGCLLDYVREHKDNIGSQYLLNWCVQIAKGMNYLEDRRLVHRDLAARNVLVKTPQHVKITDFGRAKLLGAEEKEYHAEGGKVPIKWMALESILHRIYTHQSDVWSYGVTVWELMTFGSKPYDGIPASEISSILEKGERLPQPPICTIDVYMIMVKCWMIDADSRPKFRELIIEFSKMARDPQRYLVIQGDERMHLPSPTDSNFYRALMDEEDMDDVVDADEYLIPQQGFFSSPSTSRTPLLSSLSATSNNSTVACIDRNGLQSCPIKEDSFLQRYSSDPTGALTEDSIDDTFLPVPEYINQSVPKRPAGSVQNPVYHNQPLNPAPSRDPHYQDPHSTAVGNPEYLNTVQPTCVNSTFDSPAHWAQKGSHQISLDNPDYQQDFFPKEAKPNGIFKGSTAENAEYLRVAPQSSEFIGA
Chain of EGFR (CUTO14 cells) (P00533 with tags, fused parts or gaps DUP767-769): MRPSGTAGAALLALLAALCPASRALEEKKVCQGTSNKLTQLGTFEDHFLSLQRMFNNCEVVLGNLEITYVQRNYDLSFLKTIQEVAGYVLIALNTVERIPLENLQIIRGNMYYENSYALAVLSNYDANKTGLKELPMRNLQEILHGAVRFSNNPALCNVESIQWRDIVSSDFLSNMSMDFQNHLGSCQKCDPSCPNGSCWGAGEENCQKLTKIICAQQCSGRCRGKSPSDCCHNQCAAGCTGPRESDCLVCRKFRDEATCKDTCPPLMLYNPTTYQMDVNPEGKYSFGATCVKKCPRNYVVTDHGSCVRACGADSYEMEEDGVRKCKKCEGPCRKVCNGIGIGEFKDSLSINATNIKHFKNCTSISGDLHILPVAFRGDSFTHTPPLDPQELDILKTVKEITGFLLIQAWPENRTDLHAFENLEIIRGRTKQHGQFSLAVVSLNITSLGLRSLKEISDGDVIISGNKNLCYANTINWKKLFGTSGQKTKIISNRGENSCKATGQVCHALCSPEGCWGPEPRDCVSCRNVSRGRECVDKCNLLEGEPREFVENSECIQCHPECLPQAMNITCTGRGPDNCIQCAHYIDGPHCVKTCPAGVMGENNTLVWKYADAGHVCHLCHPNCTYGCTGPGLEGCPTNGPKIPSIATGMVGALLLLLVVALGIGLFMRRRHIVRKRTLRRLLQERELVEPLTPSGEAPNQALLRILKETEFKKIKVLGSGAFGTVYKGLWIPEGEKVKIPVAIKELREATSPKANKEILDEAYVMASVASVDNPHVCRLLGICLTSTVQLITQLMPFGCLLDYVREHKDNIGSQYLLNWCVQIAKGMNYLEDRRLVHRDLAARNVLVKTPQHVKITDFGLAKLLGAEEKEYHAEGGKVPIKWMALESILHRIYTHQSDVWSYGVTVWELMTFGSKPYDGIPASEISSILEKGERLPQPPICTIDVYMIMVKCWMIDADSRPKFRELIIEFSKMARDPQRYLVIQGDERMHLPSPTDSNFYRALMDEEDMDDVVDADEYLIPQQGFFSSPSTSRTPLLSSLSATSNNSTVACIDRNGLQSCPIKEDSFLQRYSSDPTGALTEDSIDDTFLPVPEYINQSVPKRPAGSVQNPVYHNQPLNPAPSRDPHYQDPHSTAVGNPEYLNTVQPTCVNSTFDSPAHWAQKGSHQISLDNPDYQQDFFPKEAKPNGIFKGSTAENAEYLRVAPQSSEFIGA

Structure (SMILES) | IC50 (EGFR WT (Ba/F3 cells)) [nM] | IC50 [1] [nM] | IC50 (EGFR (CUTO14 cells)) [nM] | IC50 (EGFR L858R (Ba/F3 cells)) [nM] | IC50 [2] [nM] | IC50 [3] [nM] | IC50 [4] [nM] | IC50 [5] [nM] | IC50 [6] [nM] | IC50 [7] [nM]
C=CC(=O)N1CCC2(CC1)CNC(=O)c1c2[nH]c(-c2ccncc2F)c1Nc1cc(F)cc(Cl)c1OC [Compound 559, 3′-[(3-chloro-5-fluoro-2-methoxyphenyl)amino]-2′-(3-fluoropyridin-4-yl)-1-(prop-2-enoyl)-5′,6′-dihydro-1′H-spiro[piperidine-4,7′-pyrrolo[3,2-c]pyridin]-4′-one] | < 100 | < 100 | < 100 | < 100 | < 100 | < 100 | < 100 | < 100 | – | –
COc1c(Cl)cccc1Nc1c(-c2ccncc2F)[nH]c2c(C[C@@H]3COCCO3)c[nH]c(=O)c12 [compound 657] | 100 to 1000 | < 100 | < 100 | < 100 | < 100 | < 100 | – | < 100 | < 100 | < 100
COCC[C@H]1CNC(=O)c2c1[nH]c(-c1ccnc(C)n1)c2Nc1cccc(F)c1OC [453b] | 100 to 1000 | < 100 | < 100 | < 100 | < 100 | < 100 | – | < 100 | < 100 | < 100
COc1c(Cl)cccc1Nc1c(-c2ccnc(N)n2)[nH]c2c1C(=O)NC[C@@H]2C[C@H]1COCCO1 [Compound 531, (7S)-2-(2-aminopyrimidin-4-yl)-3-[(3-chloro-2-methoxyphenyl)amino]-7-[(2S)-1,4-dioxan-2-ylmethyl]-1H,5H,6H,7H-pyrrolo[3,2-c]pyridin-4-one] | 100 to 1000 | < 100 | < 100 | < 100 | < 100 | < 100 | < 100 | < 100 | – | –
COc1c(Cl)cc(F)cc1Nc1c(-c2ccnc(C)n2)[nH]c2c1C(=O)NC[C@@H]2C[C@@H]1COCCO1 [compound 651] | 100 to 1000 | < 100 | < 100 | – | < 100 | < 100 | – | – | < 100 | < 100
